Experimental data: paper PMC11432795, “Mutagenesis of the Peptide Inhibitor of ASIC3 Channel Introduces Binding to Thumb Domain of ASIC1a but Reduces Analgesic Activity” (Marine Drugs, 2024)
Positions of bridges follow the written chain, without caps; N, C: chain ends. Residues, ends and D or L forms follow the SMILES beside them.

System: rat ASIC1a E357A mutant channel
Assay: Two-electrode voltage clamp, E357A mutant ASIC1a in X. laevis oocytes
Format: cell-based
Details: 10 µM; pH 5.5 stimulus, conditioning pH 7.4, peptide 30 s; mean ± SEM, n = 5
Description: Figure 5 The pivotal role of residue D355 in the ASIC1a channel for the action of the A23K peptide ligand. (A,B) pH dependence of steady-state desensitization (A) and activation (B) in mutant channels (D355A and E357A) compared to the wild-type channel (wt). Each data point represents results from 5 cells. (C–E) Representative current traces illustrating the effects of A23K at a concentration of 10 µM on wt (C), D355A (D), and E357A (E) channels. Currents were evoked by a pH 5.5 stimulus following a conditioning pH of 7.4, with the peptide applied for 30 s preceding the pH stimulus. (F) Bar graph quantifying the effects depicted in (C,D) as a percentage of the corresponding control currents (n = 5). A value of 1.0, represented by a dotted line, corresponds to control measurements at pH 5.5 for each form of ASIC1a. The data are expressed as mean ± SEM; *** p < 0.001, **** p < 0.0001, ns non-significant vs. control, unpaired t-test.
To introduce D355A and E357A substitutions, we designed two pairs of primers. For D355A substitution, the forward primer sequence was 5′–[…]–3′, and the reverse primer (R2) for D355A was 5′–CTAGGAAGTCCAGGGCAG–3′. For E357A substitution, the forward primer sequence was 5′–[…]–3′, and the reverse primer for E357A was the same as for D355A (designated as “R2”). […]

Question: Which “inhibitory effect on E357A mutant channel” value does the source give for `CC[C@H](C)[C@H](N)C(=O)N[C@@H](CO)C(=O)N[C@H](C(=O)N[C@@H](CC(=O)O)C(=O)N1CCC[C@H]1C(=O)N1CCC[C@H]1C(=O)N[C@H]1CSSC[C@@H]2NC(=O)[C@H](CC(N)=O)NC(=O)CNC(=O)[C@H](CO)NC(=O)CNC(=O)[C@H](CC(=O)O)NC(=O)[C@H](CCCNC(=N)N)NC(=O)[C@H](Cc3c[nH]cn3)NC(=O)[C@H](Cc3ccc(O)cc3)NC(=O)[C@H](CSSC[C@@H](C(=O)NCC(=O)N[C@@H](C)C(=O)N[C@H](C(=O)O)C(C)C)NC(=O)CNC(=O)[C@H](Cc3ccc(O)cc3)NC(=O)[C@H](CCCCN)NC(=O)[C@H](CC(=O)O)NC(=O)[C@H](Cc3ccc(O)cc3)NC(=O)[C@H](C(C)C)NC2=O)NC(=O)[C@H](Cc2ccccc2)NC(=O)[C@H](CCCNC(=N)N)NC1=O)[C@@H](C)CC` [A23K] (H-ISIDPPCRFCYHRDGSGNCVYDKYGCGAV-OH; disulfide 7-19, 10-26) here?
Answer: 47.1 ± 7.7%
